Measurements: patent US8309596B2, “Kallikrein 7 modulators” (Novartis AG, priority 2007, dated 2012)
Marks after values point to notes of the source that are not given here. One block for each compound: values may come before it.

Assays:
Kallikrein-7 = Kallikrein-7 (Homo sapiens, UniProt P49862); test: Kallikrein-7 inhibition, fluorescence-quenched substrate, determination of IC50 values; type: biochemical; conditions: pH 5.6, 1 hour preincubation, 0.2 nM protease, 2 μM substrate, room temperature
Kallikrein-7, sequence (P49862 30-253): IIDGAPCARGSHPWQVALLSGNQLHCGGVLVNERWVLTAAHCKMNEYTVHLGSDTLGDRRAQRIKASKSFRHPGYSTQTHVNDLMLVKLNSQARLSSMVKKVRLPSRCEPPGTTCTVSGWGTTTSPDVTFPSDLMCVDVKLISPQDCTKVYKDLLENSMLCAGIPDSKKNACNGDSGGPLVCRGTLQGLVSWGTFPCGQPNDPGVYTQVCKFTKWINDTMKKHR
Procedure: The fluorescence-quenched substrate Ac-Glu-Asp(EDANS)-Lys-Pro-Ile-Leu-Phe^Arg-Leu-Gly-Lys(DABCYL)-Glu-NH2 (where ^ indicates the scissile bond, identified by MS analysis) is purchased from Biosyntan (Berlin, Germany) and kept as a 5 mM stock solution in DMSO at −20° C. All other chemicals are of analytical grade.
Enzymatic reactions are conducted in 50 mM sodium citrate buffer at pH 5.6 containing 150 mM NaCl and 0.05% (w/v) CHAPS.
All protein and peptide containing solutions are handled in siliconized tubes (Life Systems Design, Merenschwand, Switzerland). […]
For fluorescence intensity (FI) measurements an Ultra Evolution reader (TECAN, Maennedorf, Switzerland) is used. The instrument is equipped with a combination of a 350 nm (20 nm bandwidth) and a 500 nm (25 nm bandwidth) bandpath filter for fluorescence excitation and emission acquisition, respectively. […]
For the determination of IC50 values the assay is performed at room temperature in 384-well plates. […] The protease concentration in final assay solution is 0.2 nM (according to the enzyme concentrations determined by the Bradford method). […] The effect of the compound on the enzymatic activity is obtained from the linear progress curves and determined from two readings, the first one taken directly after the addition of substrate and the second one after 1 hour. […]

hairless SKH1 mice = test: Test on recovery of skin barrier disruption in mice (TEWL); type: in vivo; conditions: 10 mM
Procedure: Method: Skin barrier disruption is achieved in groups of hairless SKH1 mice with repeated stripping of the skin with S-Sqame® skin sampling disks. The procedure is completed when transepidermal water loss (TEWL) achieved ≧[…]. TEWL is assessed with a Tewameter TM210 (Courage Khazaka, Cologne, Del.). Immediately after barrier disruption 30 μl of the compound of example 37(=Test compound 1) is applied at 10 mM concentration. Controls animals are treated similarly with the solvent (EtOH/propylene glycol, 3/7 (v/v)) alone. TEWL is measured before, immediately after, and at 3 hrs after barrier disruption. In each animal, the percentage recovery is calculated using the formula: (1−[TEWL at 3 hrs−base line TEWL]/[TEWL immediately after stripping−base line TEWL])×100%.

Crl:NMRI mice = test: Anti-inflammatory activity in murine model of irritant contact dermatitis (ICD), TPA-induced; type: in vivo; conditions: for % Inhibition inflammatory swelling [Mean ± SEM values]: 10 μl topically 30 minutes prior to TPA challenge, auricular weight 6 hours after challenge, n 24
Procedure: Method: Crl:NMRI mice are challenged with 10 μl 0.005% phorbol 12-myristat-13-acetate (TPA) on the inner surface of the right ear. The unchallenged left ears serve as normal controls and dermatitis is evaluated from the difference in auricular weight (taken as a measure of inflammatory swelling) 6 hours after the challenge. The animals are treated topically with 10 μl of the test compound 1 or the solvent 30 minutes prior to the challenge. The efficacy of the treatment is calculated as the percentage inhibition of inflammatory auricular swelling relative to animals treated with the vehicle alone.

swine = test: Anti-inflammatory activity in swine model of allergic contact dermatitis (ACD), DNFB; type: in vivo
Procedure: Eight days before the elicitation of the ACD, […] of 10% 2,4-dinitrofluorobenzene (DNFB, dissolved in DMSO/acetone/olive oil [1/5/3, v/v/v]) are applied epicutaneously in divided volumes onto the basis of both ears and onto both groins (100 μl/site) for sensitization. The challenge reactions are elicited with 15 μl of DNFB (1.0%) on contralateral test sites (each 7 cm^2 in size) of the shaved dorsolateral back. For treatment, the compound of example 11 (=Test compound 2) and the placebo (solvent only) are applied contralaterally to 2 test sites in each animal 0.5 and 6 hours after the challenge. The test sites are clinically examined 24 hours after the challenge when inflammation peaks. The changes are scored on a scale from 0 to 4 (Table XY), allowing a combined maximal score of 12 per designated site. Skin reddening is measured reflectometrically using a* values (see Table 3)

IC50 (Kallikrein-7): 3 nM
SMILES: O=C(NCc1cccnc1)[C@@H]1[C@H]2C[C@H]2CN1C(=O)NCc1cccc2ccc(Cl)cc12 [Example 36, (1S,2S,5R)-3-aza-bicyclo[3.1.0]hexane-2,3-dicarboxylic acid 3-[(7-chloro-naphthalen-1-ylmethyl)-amide] 2-[(pyridin-3-ylmethyl)-amide]]

SMILES: COc1ccc(CCNC(=O)[C@@H]2[C@H]3C[C@H]3CN2C(=O)NCc2cccc3ccc(Cl)cc23)cc1 [Example 37, (1S,2S,5R)-3-aza-bicycic[3.1.0]hexane-2,3-dicarboxylic acid 3-[(7-chloro-naphthalen-1-ylmethyl)-amide] 2-{[2-(4-methoxy-phenyl)-ethyl]-amide}]
% Recovery in barrier disruption Mean (SD values) (hairless SKH1 mice; 30 μl applied immediately after barrier disruption, TEWL at 3 hrs, n: 8 or 12 animals per group): 76 (3.3)*** % | acceleration of barrier repair compared to repair in mice treated with the solvent alone (hairless SKH1 mice; single application, p<0.001): 65-76% | % Inhibition inflammatory swelling [Mean ± SEM values] (Crl:NMRI mice; 10 mM): 41 ± 5.3***^24% | inhibition of inflammatory swelling (Crl:NMRI mice; 20 mM concentrations as printed in text): 54-73% | % Inhibition inflammatory swelling [Mean ± SEM values] (Crl:NMRI mice; 30 mM): 73 ± 7.0***^24%

SMILES: C#Cc1ccc2cccc(CNC(=O)N3CCC[C@H]3C(=O)NCc3cccnc3)c2c1 [Example 11, (S)-Pyrrolidine-1,2-dicarboxylic acid 1-[(7-ethynyl-naphthalen-1-ylmethyl)-amide] 2-[(pyridin-3-ylmethyl)-amide]]
A* value (Mean, SD, n: 8), skin reddening measured reflectometrically (swine; 1% solution applied 0.5 and 6 hours after challenge, 24 hours after challenge): 7.7 (1.6) | Clinical score (Mean, SD, n: 8) (swine; 1% solution applied 0.5 and 6 hours after challenge, examined 24 hours after challenge, maximal score 12): 4.1 (1.3) | Inhibition vs placebo-treated sites, Clinical score (swine; 1% solution, Mean, SD): 42.4 (11.1) | inhibition of clinical inflammatory changes (swine; 1% solution, p<0.01): 42%
